Laboratory results reported in US20240423983A1, “ENHANCEMENT OF CD47 BLOCKADE THERAPY WITH DHFR INHIBITORS” (PF Argentum IP Holdings LLC, priority 2021, published 2024).
Like-named read-outs stand apart in the source and are kept apart here.

Columns and labels:
[1] = test system: NCI-H460 NSCLC xenograft; settings: cited from earlier work
[2] = test system: human non-small cell lung cancer (NSCLC) xenograft; settings: 2 mg/kg pralatrexate-treated group; cited from earlier work
[3] = test system: human T cell lymphoma cell line HH; test: macrophage phagocytosis assay on human lymphoma cell line HH; format: cell-based; settings: HH cells (CD47-sensitive), 2 h co-culture with macrophages; FIG. 1; vs single agents or no-treatment control
Experimental: (§1) A macrophage phagocytosis assay was conducted in order to assess the effects of the combination of a DHFRi and CD47 blocking agent as compared to the agents individually on macrophage phagocytosis of human lymphoma cells.
(§2) For the assay, the DHFRi was pralatrexate, and the CD47 blocking agent was an Fc fusion protein comprising soluble SIRPα (TTI-621). The lymphoma cells were human T cell lymphoma cell lines HH (ATCC Ref. CRL-2105) (a mature T cell line from peripheral blood of a patient with aggressive cutaneous T cell leukemia/lymphoma) or H9 (ATCC Ref. HTB-176) (a cutaneous T cell lymphoma). Thus, there were 4 experimental conditions for each lymphoma cell type: A) no treatment; B) pralatrexate only; C) TTI-621 (SIRPα-IgG1 Fc) only; and D) combination of pralatrexate and TTI-621.
(§3) PBMC from normal donors were purchased from BioIVT and informed consent was obtained from all donors. CD14+ monocytes were isolated from PBMCs by positive selection using human monocyte isolation kit. […] Phagocytosis was assessed as % VPD450+ cells of live, single CD14+CD11b+ macrophages by flow cytometry.

[4] = test system: human T cell lymphoma cell line H9; test: macrophage phagocytosis assay on human lymphoma cell line H9; format: cell-based; settings: H9 cells (CD47-insensitive), 2 h co-culture with macrophages; FIG. 2; vs single agents or no-treatment control
Experimental: as §1, §2, §3

Row | Compound | tumor growth inhibition (TGI) ([1]; 1 mg/kg) | tumor growth inhibition (TGI) ([1]; 2 mg/kg) | tumor growth inhibition (TGI) [2] | percentage phagocytosis (% VPD450+ cells of live, single CD14+CD11b+ macrophages) [3] | percentage phagocytosis (% VPD450+ cells of live, single CD14+CD11b+ macrophages) [4]
1 | C#CCC(Cc1cnc2nc(N)nc(N)c2n1)c1ccc(C(=O)N[C@@H](CCC(=O)O)C(=O)O)cc1 (some centres unmarked) [pralatrexate, Pralatrexate] | 34% | 52% | 38% | – | –
2 | TTI-621: Fc fusion protein comprising soluble SIRPα (SIRPα-IgG1 Fc), SEQ ID NO: 9; CD47 blocking agent | – | – | – | increased phagocytosis | not present
